In patent US11000033B2, “Ketone or oxime compound, and herbicide” (NISSAN CHEMICAL CORPORATION, priority 2014, dated 2021):

Key:
Type in all cases: in vivo
[1] = system: Scirpus juncoides; experiment: Test Example 2: herbicidal activity, application during weed generation in submerged conditions (symbol B); details: Table 23; application herbicide amount 320 g/ha; grade 0-5 by criteria of Test Example 1
Outline: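 Each pot contained alluvial soil under 4 cm of water with seeds of all three weeds sown together. Following growth at 25° C. to 30° C. to the one- to two-leaf stage, the floodwater received diluted emulsion at a predetermined amount; visual assessment followed at 3 weeks.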

[2] = system: beet; experiment: Test Example 4: effect on crop by soil treatment (symbol f); details: for f (beet) effect on crop grade: application herbicide amount 320 g/ha; for f: beet, effect grade on crop: 320 g/ha
Outline: (§1)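 Crop seed is sown in spots together with several weed species in a box of sterilized diluvial soil. It is covered by about 1.5 cm of soil and kept in a greenhouse held between 25° C. and 30° C.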

[3] = system: Scirpus juncoides; experiment: Test Example 1: herbicidal activity, application before weed generation in submerged conditions (symbol B); details: application herbicide amount 320 g/ha
Outline: (§2)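 Weed control was rated three weeks after treatment on a 0–5 scale, from 5% or lower up to 90% or more. Pre-emergence water-surface application of diluted emulsion at a predetermined rate was made on the day of sowing, in flooded (4 cm water) pots containing rice seedlings, kept at 25–30 °C under glass.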

[4] = system: Monochoria vaginalis; experiment: Test Example 1: herbicidal activity, application before weed generation in submerged conditions (symbol C); details: application herbicide amount 320 g/ha
Outline: as §2

[5] = system: Echinochloa crus-galli var. crus-galli; experiment: Test Example 5: herbicidal effect by foliage application, plastic box (symbol H); details: 320 g/ha, 3 weeks after application
Outline: (§3)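 Greenhouse foliar test: seedlings at 14 days, grown 25° C. to 30° C. in sterilized diluvial soil; compound applied as an aqueous dilution of an emulsion; response read 3 weeks after spraying.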

[6] = system: Leptochloa chinensis; experiment: Test Example 3: herbicidal effect by foliage application, Wagner pot (symbol D); details: application herbicide amount 320 g/ha
Outline: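 Seeds sown in alluvial soil kept under 0.1–0.5 cm water, greenhouse 25–30 °C; 14 d growth. Leaves treated by small sprayer with water-diluted emulsion at a predetermined rate. Effect graded by set scale, 3 weeks.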

[7] = system: soybean; experiment: Test Example 4: effect on crop by soil treatment (symbol d); details: for d (soybean) effect on crop grade: application herbicide amount 320 g/ha; for d: soybean, effect grade on crop: 320 g/ha
Outline: as §1

[8] = system: rapeseed; experiment: Test Example 5: effect on crop by foliage application, plastic box (symbol g); details: 320 g/ha, 3 weeks after application
Outline: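 A greenhouse held between 25° C. and 30° C. was used to grow plants sown spot-wise, beneath ~1.5 cm of soil, in boxes of sterilized diluvial soil.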

[9] = system: transplanted rice plant; experiment: Test Example 1: effect on crop, application before weed generation in submerged conditions (symbol a); details: application herbicide amount 320 g/ha
Outline: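 Rice at 2.5 leaf stage transplanted into submerged soil (4 cm depth) sown with three weed species; herbicide applied before weed emergence.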

[10] = system: Chenopodium album; experiment: Test Example 5: herbicidal effect by foliage application, plastic box (symbol O); details: 320 g/ha, 3 weeks after application
Outline: as §3

| SMILES | Herbicidal effect grade, B: Scirpus juncoides [1] | f (beet) effect on crop grade [2] | Herbicidal effect grade, B: Scirpus juncoides [3] | Herbicidal effect grade, C: Monochoria vaginalis [4] | H: Echinochloa crus-galli var. crus-galli, herbicidal effect grade [5] | herbicidal effect on D (Leptochloa chinensis), grade 0-5 [6] | d (soybean) effect on crop grade [7] | g: rapeseed, effect on crop grade [8] | Effect grade on crop, a: transplanted rice plant [9] | O: Chenopodium album, herbicidal effect grade [10] | f: beet, effect grade on crop [2] | H: Echinochloa crus-galli var. crus-galli, herbicidal effect (criteria 0-5) [5] | d: soybean, effect grade on crop [7] | g: rapeseed, effect on crop (criteria 0-5) [8] | O: Chenopodium album, herbicidal effect (criteria 0-5) [10] |
| --- | --- | --- | --- | --- | --- | --- | --- | --- | --- | --- | --- | --- | --- | --- | --- |
| CON=C(C)CC1CC(OC(=O)COc2ccccc2)=C(c2c(C)cc(C)cc2C)C1=O (centres unmarked) [1-043] | 5 (Herbicidal ratio of 90% or more (almost completely withered)) | 4 (Herbicidal ratio of 70% or higher and lower than 90%) | 5 (Herbicidal ratio of 90% or more (almost completely withered)) | 2 (Herbicidal ratio of 20% or higher and lower than 40%) | 5 (Herbicidal ratio of 90% or more (almost completely withered)) | 5 (Herbicidal ratio of 90% or more (almost completely withered)) | 1 (Herbicidal ratio of 5% or higher and lower than 20%) | 4 (Herbicidal ratio of 70% or higher and lower than 90%) | 5 (Herbicidal ratio of 90% or more (almost completely withered)) | 2 (Herbicidal ratio of 20% or higher and lower than 40%) |  |  |  |  |  |
| CON=C(C)CC1CC(OC)=C(c2c(C)cc(C)cc2C)C1=O (centres unmarked) [1-001, 2-mesityl-3-methoxy-5-{2-(methoxyimino)propyl}cyclopent-2-enone] | 0 (Herbicidal ratio of 5% or lower (almost no effect)) | 0 (Herbicidal ratio of 5% or lower (almost no effect)) | 0 (Herbicidal ratio of 5% or lower (almost no effect)) | 0 (Herbicidal ratio of 5% or lower (almost no effect)) | 0 (Herbicidal ratio of 5% or lower (almost no effect)) | 0 (Herbicidal ratio of 5% or lower (almost no effect)) | 0 (Herbicidal ratio of 5% or lower (almost no effect)) | 0 (Herbicidal ratio of 5% or lower (almost no effect)) | 0 (Herbicidal ratio of 5% or lower (almost no effect)) | 0 (Herbicidal ratio of 5% or lower (almost no effect)) |  |  |  |  |  |
| CON=C(C)CC1CC(OC(=O)C(C)Cl)=C(c2c(C)cc(C)cc2C)C1=O (centres unmarked) [1-042] | 4 (Herbicidal ratio of 70% or higher and lower than 90%) | 0 (Herbicidal ratio of 5% or lower (almost no effect)) | 5 (Herbicidal ratio of 90% or more (almost completely withered)) | 4 (Herbicidal ratio of 70% or higher and lower than 90%) | 5 (Herbicidal ratio of 90% or more (almost completely withered)) | 5 (Herbicidal ratio of 90% or more (almost completely withered)) | 0 (Herbicidal ratio of 5% or lower (almost no effect)) | 4 (Herbicidal ratio of 70% or higher and lower than 90%) | 5 (Herbicidal ratio of 90% or more (almost completely withered)) | 0 (Herbicidal ratio of 5% or lower (almost no effect)) |  |  |  |  |  |
| CON=C(C)CC1CC(OC(=O)COc2ccc(C=O)cc2)=C(c2c(C)cc(C)cc2C)C1=O (centres unmarked) [1-079] | 4 (Herbicidal ratio of 70% or higher and lower than 90%) |  | 5 (Herbicidal ratio of 90% or more (almost completely withered)) | 3 (Herbicidal ratio of 40% or higher and lower than 70%) |  | 5 (Herbicidal ratio of 90% or more (almost completely withered)) |  |  | 5 (Herbicidal ratio of 90% or more (almost completely withered)) |  | 0 (Herbicidal ratio of 5% or lower (almost no effect)) | 5 (Herbicidal ratio of 90% or more (almost completely withered)) | 1 (Herbicidal ratio of 5% or higher and lower than 20%) | 5 (Herbicidal ratio of 90% or more (almost completely withered)) | 0 (Herbicidal ratio of 5% or lower (almost no effect)) |
| CON=C(C)CC1CC(O)=C(c2c(C)cc(C)cc2C)C1=O (centres unmarked) [1-002, 3-hydroxy-2-mesityl-5-{2-(methoxyimino)propyl}cyclopent-2-enone] | 3 (Herbicidal ratio of 40% or higher and lower than 70%) | 3 (Herbicidal ratio of 40% or higher and lower than 70%) | 4 (Herbicidal ratio of 70% or higher and lower than 90%) | 4 (Herbicidal ratio of 70% or higher and lower than 90%) | 5 (Herbicidal ratio of 90% or more (almost completely withered)) | 5 (Herbicidal ratio of 90% or more (almost completely withered)) | 0 (Herbicidal ratio of 5% or lower (almost no effect)) | 5 (Herbicidal ratio of 90% or more (almost completely withered)) | 5 (Herbicidal ratio of 90% or more (almost completely withered)) | 4 (Herbicidal ratio of 70% or higher and lower than 90%) |  |  |  |  |  |
| CC(CC1CC(O)=C(c2c(C)cc(C)cc2C)C1=O)=NOC(C)C (centres unmarked) [1-052] | 2 (Herbicidal ratio of 20% or higher and lower than 40%) | 0 (Herbicidal ratio of 5% or lower (almost no effect)) | 5 (Herbicidal ratio of 90% or more (almost completely withered)) | 0 (Herbicidal ratio of 5% or lower (almost no effect)) | 5 (Herbicidal ratio of 90% or more (almost completely withered)) | 5 (Herbicidal ratio of 90% or more (almost completely withered)) | 0 (Herbicidal ratio of 5% or lower (almost no effect)) | 4 (Herbicidal ratio of 70% or higher and lower than 90%) | 5 (Herbicidal ratio of 90% or more (almost completely withered)) | 1 (Herbicidal ratio of 5% or higher and lower than 20%) |  |  |  |  |  |
| CON=CCC1CC(O)=C(c2c(C)cc(C)cc2C)C1=O (centres unmarked) [1-050] | 0 (Herbicidal ratio of 5% or lower (almost no effect)) | 0 (Herbicidal ratio of 5% or lower (almost no effect)) | 2 (Herbicidal ratio of 20% or higher and lower than 40%) | 3 (Herbicidal ratio of 40% or higher and lower than 70%) | 5 (Herbicidal ratio of 90% or more (almost completely withered)) | 4 (Herbicidal ratio of 70% or higher and lower than 90%) | 0 (Herbicidal ratio of 5% or lower (almost no effect)) | 4 (Herbicidal ratio of 70% or higher and lower than 90%) | 4 (Herbicidal ratio of 70% or higher and lower than 90%) | 0 (Herbicidal ratio of 5% or lower (almost no effect)) |  |  |  |  |  |
| CCCC=CC(=O)OC1=C(c2c(C)cc(C)cc2C)C(=O)C(CC(C)=NOC)C1 (centres unmarked) [1-090] | 5 (Herbicidal ratio of 90% or more (almost completely withered)) |  | 5 (Herbicidal ratio of 90% or more (almost completely withered)) | 1 (Herbicidal ratio of 5% or higher and lower than 20%) |  | 5 (Herbicidal ratio of 90% or more (almost completely withered)) |  |  | 5 (Herbicidal ratio of 90% or more (almost completely withered)) |  | 0 (Herbicidal ratio of 5% or lower (almost no effect)) | 5 (Herbicidal ratio of 90% or more (almost completely withered)) | 0 (Herbicidal ratio of 5% or lower (almost no effect)) | 4 (Herbicidal ratio of 70% or higher and lower than 90%) | 2 (Herbicidal ratio of 20% or higher and lower than 40%) |
